# PMC6255700, “A novel glycosyltransferase catalyses the transfer of glucose to glucosylated anthocyanins in purple sweet potato” (Journal of Experimental Botany, 2018)
# Key:
# Ib3GGT (IbA3G2GluT) = biological target: T1, Ib3GGT (IbA3G2GluT) (Ipomoea batatas, UniProt A1YM58); assay: HPLC / LC-MS glycosyltransferase assay with crude recombinant yeast extract; assay type: cell-based; conditions: acceptor; donor 1 mM UDP-glucose; 100 mM phosphate pH 7.0, 37 °C, 2 h
# T1 construct: gene GT
# [1] = biological target: T2, At3GGT (UGT79B1, AtA3G2XylT) (Arabidopsis thaliana, UniProt Q9LVW3); assay: as above; assay type: cell-based; conditions: acceptor; donor UDP-xylose; 100 mM phosphate pH 7.0, 37 °C, 2 h
# T2 construct: gene A3G2XYLT; full length, C-terminal His6, pYES2 in Saccharomyces cerevisiae BY4742, crude yeast extract
# T2 sequence (Q9LVW3 1-468): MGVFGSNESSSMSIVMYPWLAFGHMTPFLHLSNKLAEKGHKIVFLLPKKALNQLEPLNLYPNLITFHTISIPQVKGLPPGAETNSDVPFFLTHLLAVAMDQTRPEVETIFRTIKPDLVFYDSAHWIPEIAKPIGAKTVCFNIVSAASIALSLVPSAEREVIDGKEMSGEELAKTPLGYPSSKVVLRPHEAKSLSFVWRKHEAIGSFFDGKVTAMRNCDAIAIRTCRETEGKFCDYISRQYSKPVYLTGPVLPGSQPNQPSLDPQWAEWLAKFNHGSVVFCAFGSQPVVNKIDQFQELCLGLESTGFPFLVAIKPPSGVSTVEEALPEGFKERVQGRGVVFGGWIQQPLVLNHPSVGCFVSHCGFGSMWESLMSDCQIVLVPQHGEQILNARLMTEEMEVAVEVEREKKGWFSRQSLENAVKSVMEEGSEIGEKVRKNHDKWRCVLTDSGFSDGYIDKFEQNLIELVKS
# T1 sequence (A1YM58 entry or part of it): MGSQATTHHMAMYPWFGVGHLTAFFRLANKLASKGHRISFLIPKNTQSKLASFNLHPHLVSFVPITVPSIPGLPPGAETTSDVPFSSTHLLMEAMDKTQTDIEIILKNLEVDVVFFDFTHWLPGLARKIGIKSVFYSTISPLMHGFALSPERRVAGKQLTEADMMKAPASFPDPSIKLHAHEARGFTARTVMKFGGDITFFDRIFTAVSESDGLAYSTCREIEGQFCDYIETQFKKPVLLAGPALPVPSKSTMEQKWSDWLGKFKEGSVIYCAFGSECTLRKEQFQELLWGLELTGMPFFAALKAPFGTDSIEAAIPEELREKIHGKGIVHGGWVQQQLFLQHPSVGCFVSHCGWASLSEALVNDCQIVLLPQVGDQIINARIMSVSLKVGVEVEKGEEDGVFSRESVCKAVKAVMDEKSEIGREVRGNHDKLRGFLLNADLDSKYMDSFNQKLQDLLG
structure (smiles),measurement,setting,value
OC[C@H]1O[C@@H](Oc2cc3c(O)cc(O)cc3[o+]c2-c2ccc(O)c(O)c2)[C@H](O)[C@@H](O)[C@@H]1O [cyanidin 3-O-glucoside],HPLC / LC-MS glycosyltransferase assay with crude recombinant yeast extract,Ib3GGT (IbA3G2GluT),The recombinant Ib3GGT protein only catalysed the conversion of cyanidin 3-O-glucoside into cyanidin 3-O-sophoroside
same,HPLC / LC-MS glycosyltransferase assay with crude recombinant yeast extract,[1],using only UDP-xylose as the sugar donor to catalyse cyanidin 3-O-glucoside into cyanidin 3-O-glucoside-2″-O-xyloside
